Results as given in patent US5756765A, “2- (2-Substituted pyrrolidin-4-yl) thio-carbapenem derivatives” (Chong Kun Dang Corp., priority 1992, dated 1998).
Converted amounts (≈) assume the structure as drawn. Like-named read-outs stand apart in the source and are kept apart here.

Legend:
[1] = test system: Enterobacter cloacae 1321E; assay: Test 1: In vitro antibacterial activity (MIC), Mueller Hinton Agar dilution; type: cell-based; details: read-out: Minimal Inhibitory Concentration (MIC)
Experimental: (§1) Test 1: In Vitro Antibacterial Activity Test
(§2) The compounds of Examples 1,2,3 and 4 according to the present invention were used as a test compound and imipenem was used as a comparative compound.
(§3) The test compounds and comparative compound were gradually diluted in Mueller Hinton Agar(MHA) medium. Test strains as listed in the following table were inoculated into the medium in an amount of 10^6 viable cells/ml and then incubated at 37° C. for 18 hours. Then, MIC value was measured and expressed in terms of μg/ml.

Escherichia coil TEM = assay: as above; type: cell-based; details: 18 h, read-out: Minimal Inhibitory Concentration (MIC)
Experimental: as §1, §2, §3

Escherichia coli DC 2 = assay: as above; type: cell-based; details: read-out: Minimal Inhibitory Concentration (MIC)
Experimental: as §1, §2, §3

[2] = test system: Klebsiella aerogenes 1522E; assay: as above; type: cell-based; details: read-out: Minimal Inhibitory Concentration (MIC)
Experimental: as §1, §2, §3

Klebsiella oxytoca 1082E = assay: as above; type: cell-based; details: read-out: Minimal Inhibitory Concentration (MIC)
Experimental: as §1, §2, §3

[3] = test system: Pseudomonas aeruginosa 1592E; assay: as above; type: cell-based; details: read-out: Minimal Inhibitory Concentration (MIC)
Experimental: as §1, §2, §3

[4] = test system: Pseudomonas aeruginosa 9027; assay: as above; type: cell-based; details: read-out: Minimal Inhibitory Concentration (MIC)
Experimental: as §1, §2, §3

Salmonella typhimurium = assay: as above; type: cell-based; details: Salmonella enterica, read-out: Minimal Inhibitory Concentration (MIC)
Experimental: as §1, §2, §3

[5] = test system: Staphylococcus aureus SG 511; assay: as above; type: cell-based; details: read-out: Minimal Inhibitory Concentration (MIC)
Experimental: as §1, §2, §3

[6] = Test 2: Stability test against kidney dehydrogenase DHP-I; type: in vitro ADME, pig; details: kidney dhp-i enzyme; for remaining at 5 min / remaining at 10 min / remaining at 20 min / remaining at 40 min / remaining at 80 min / remaining at 2 h: pig kidney enzyme, 10 mM phosphate buffer, 37° C., read-out: percentage of the remaining amount (stability on DHP-I enzyme); for remaining at 2 h: 120 minutes
Experimental: Test 2: Stability Test Against kidney Dehydrogenase DHP-I
Each of the novel compounds of Examples 1,2,3 and 4 of the present invention and the comparative compound imipenem was dissolved in 10 mM phosphate buffer and the resulting solution was mixed with dehydrogenase enzyme solution extracted from pig kidney in a ratio of equivalent amounts. The resulting mixture was incubated at 37° C. for 2 hours, during which the decomposition degree of the compound was measured. The result thereof was given in the following Table 2 in terms of percentage of the remaining amount on the basis of the initially added amount of the compound.

[7] = test system: gram-positive and gram-negative bacteria; details: cited from earlier work
[8] = test system: dehydrogenase-1(DHP-I enzyme) present in kidney; details: cited from earlier work
[9] = clinically administered; cited from earlier work
[10] = test system: various bacteria including beta-lactamase producing strains; details: compared with thienamycin; cited from earlier work
Pseudomonas aeruginosa = details: compared with thienamycin; cited from earlier work
[11] = test system: DHP-I enzyme present in human kidney; details: cited from earlier work
[12] = substances produced by DHP-I enzyme decomposition; cited from earlier work
[13] = Enterobacter cloacae 1321E, 10^6 viable cells/ml, 37° C., 18 hours
[14] = DC2, Escherichia coli DC 2, 10^6 viable cells/ml, 37° C., 18 hours
[15] = Klebsiella aerogenes 1522E, 10^6 viable cells/ml, 37° C., 18 hours
[16] = Klebsiella oxytoca 1082E, 10^6 viable cells/ml, 37° C., 18 hours
[17] = Pseudomonas aeruginosa 1592E, 10^6 viable cells/ml, 37° C., 18 hours
[18] = Pseudomonas aeruginosa 9027, 10^6 viable cells/ml, 37° C., 18 hours
[19] = Salmonella typhimurium, 10^6 viable cells/ml, 37° C., 18 hours
[20] = SG511, Staphylococcus aureus SG 511, 10^6 viable cells/ml, 37° C., 18 hours

C[C@@H](O)[C@H]1C(=O)N2C(C(=O)O)=C(S[C@@H]3CN[C@H](CSCCC(=O)NCCO)C3)[C@H](C)[C@H]12 [Example 3, (1R,5S,6S)-2-[(2S,4S)-2-{(hydroxyethylcarbamoyl)ethylmercaptomethyl}pyrrolidin-4-yl]thio-6-[(R)-1-hydroxyethyl]-1-methyl-1-carbapen-2-em-3-carboxylicacid]
MIC [1, 13]: 0.05 µg/mL (≈ 0.106 µM)
MIC (Escherichia coil TEM): 0.05 µg/mL (≈ 0.106 µM)
MIC (Escherichia coli DC 2; [14]): 0.1 µg/mL (≈ 0.211 µM)
MIC [2, 15]: 0.1 µg/mL (≈ 0.211 µM)
MIC (Klebsiella oxytoca 1082E; [16]): 0.2 µg/mL (≈ 0.422 µM)
MIC [3, 17]: 0.39 µg/mL (≈ 0.823 µM)
MIC [4, 18]: 0.39 µg/mL (≈ 0.823 µM)
MIC (Salmonella typhimurium; [19]): 0.1 µg/mL (≈ 0.211 µM)
MIC [5, 20]: 0.05 µg/mL (≈ 0.106 µM)
remaining at 5 min [6]: 99.7%
remaining at 10 min [6]: 99.2%
remaining at 20 min [6]: 98.9%
remaining at 40 min [6]: 98%
remaining at 80 min [6]: 97.2%
remaining at 2 h [6]: 97%

C[C@@H](O)[C@H]1C(=O)N2C(C(=O)O)=C(S[C@@H]3CN[C@H](CSCCC(=O)NCC#N)C3)[C@H](C)[C@H]12 [Example 2, (1R,5S,6S)-2-[(2S,4S)-2-{(cyanomethylcarbamoyl)ethylmercaptomethyl}pyrrolidin-4-yl]thio-6-[(R)-1-hydroxyethyl]1-methyl-1-carbapen-2-em-3-carboxylic acid]
MIC [1, 13]: 0.05 µg/mL (≈ 0.107 µM)
MIC (Escherichia coil TEM): 0.05 µg/mL (≈ 0.107 µM)
MIC (Escherichia coli DC 2; [14]): 0.1 µg/mL (≈ 0.213 µM)
MIC [2, 15]: 0.1 µg/mL (≈ 0.213 µM)
MIC (Klebsiella oxytoca 1082E; [16]): 0.2 µg/mL (≈ 0.427 µM)
MIC [3, 17]: 0.78 µg/mL (≈ 1.66 µM)
MIC [4, 18]: 0.78 µg/mL (≈ 1.66 µM)
MIC (Salmonella typhimurium; [19]): 0.1 µg/mL (≈ 0.213 µM)
MIC [5, 20]: 0.05 µg/mL (≈ 0.107 µM)
remaining at 5 min [6]: 100%
remaining at 10 min [6]: 99.4%
remaining at 20 min [6]: 98.6%
remaining at 40 min [6]: 97.2%
remaining at 80 min [6]: 96.3%
remaining at 2 h [6]: 96.3%

C[C@@H](O)[C@H]1C(=O)N2C(C(=O)O)=C(S[C@@H]3CN[C@H](CSCCC(=O)NCC(N)=O)C3)[C@H](C)[C@H]12 [Example 4, (1R,5S,6S)-2-[(2S,4S)-2-{(2-carbamoylmethylcarbamoyl)ethylmercaptomethyl}pyrrolidin-4-yl]thio-6-[(R)-1-hydroxyethyl]-1-methyl-1-carbapen-2-em-3-carboxylic acid]
MIC [1, 13]: 0.05 µg/mL (≈ 0.103 µM)
MIC (Escherichia coil TEM): 0.1 µg/mL (≈ 0.206 µM)
MIC (Escherichia coli DC 2; [14]): 0.1 µg/mL (≈ 0.206 µM)
MIC [2, 15]: 0.1 µg/mL (≈ 0.206 µM)
MIC (Klebsiella oxytoca 1082E; [16]): 0.2 µg/mL (≈ 0.411 µM)
MIC [3, 17]: 0.78 µg/mL (≈ 1.6 µM)
MIC [4, 18]: 0.1 µg/mL (≈ 0.206 µM)
MIC (Salmonella typhimurium; [19]): 0.2 µg/mL (≈ 0.411 µM)
MIC [5, 20]: 0.05 µg/mL (≈ 0.103 µM)
remaining at 5 min [6]: 100%
remaining at 10 min [6]: 99.8%
remaining at 20 min [6]: 99%
remaining at 40 min [6]: 99.8%
remaining at 80 min [6]: 98.8%
remaining at 2 h [6]: 98.8%

C[C@@H](O)[C@H]1C(=O)N2C(C(=O)O)=C(S[C@@H]3CN[C@H](CSCC(=O)NCC#N)C3)[C@H](C)[C@H]12 [Example 1, (1R,5S,6S)-2-[(2S,4S)-2-{(cyanomethylcarbamoyl)methylmercaptomethyl}pyrrolidin-4-yl]thio-6-[(R)-1-hydroxyethyl]-1-methyl-1-carbapen-2-em-3-carboxylicacid]
MIC [1, 13]: 0.05 µg/mL (≈ 0.11 µM)
MIC (Escherichia coil TEM): 0.1 µg/mL (≈ 0.22 µM)
MIC (Escherichia coli DC 2; [14]): 0.1 µg/mL (≈ 0.22 µM)
MIC [2, 15]: 0.2 µg/mL (≈ 0.44 µM)
MIC (Klebsiella oxytoca 1082E; [16]): 0.2 µg/mL (≈ 0.44 µM)
MIC [3, 17]: 0.78 µg/mL (≈ 1.72 µM)
MIC [4, 18]: 0.1 µg/mL (≈ 0.22 µM)
MIC (Salmonella typhimurium; [19]): 0.2 µg/mL (≈ 0.44 µM)
MIC [5, 20]: 0.05 µg/mL (≈ 0.11 µM)
remaining at 5 min [6]: 99.7%
remaining at 10 min [6]: 99.4%
remaining at 20 min [6]: 99.1%
remaining at 40 min [6]: 98.1%
remaining at 80 min [6]: 97.5%
remaining at 2 h [6]: 97.2%

C[C@@H](O)[C@H]1C(=O)N2C(C(=O)O)=C(SCCN)CC12 (stereo partly drawn) [thienamycin, [5R-[5α, 6α(R*)]]-3-[(2-aminoethyl)-thio]-6-(1-hydroxyethyl)-7-oxo-1-azabicyclo[3.2.0]-hept-2-ene-2-carboxylic acid]
antimicrobial activity, in words [7]: broad and potent antimicrobial activity against gram-positive and gram-negative bacteria
decomposition in vivo by DHP-I, in words [8]: can be readily decomposed in vivo by dehydrogenase-1(DHP-I enzyme) present in kidney
recovery rate in urine [9]: extremely low

C[C@@H](O)[C@H]1C(=O)N2C(C(=O)O)=C(SCCN=CN)C[C@H]12 [Imipenem, (5R, 6S, 8R)-3-[[2-(formimidoylamino)ethyl]thio]-6-(1-hydroxyethyl)-7-oxo-1-azabicyclo[3.2.0]hept-ene-2-carboxylic acid hydrate, reference compound]
MIC ([1]; Enterobacter cloacae, 1321E, 18 h): 0.2 µg/mL
MIC (Escherichia coil TEM): 0.2 µg/mL
MIC (Escherichia coli DC 2; Escherichia coli, DC2, 18 h): 0.78 µg/mL
MIC ([2]; Klebsiella aerogenes, 1522E, 18 h): 0.78 µg/mL
MIC (Klebsiella oxytoca 1082E; Klebsiella oxytoca, 1082E, 18 h): 0.39 µg/mL
MIC ([3]; Pseudomonas aeruginosa, 1592E, 18 h): 0.78 µg/mL
MIC ([4]; Pseudomonas aeruginosa, 9027, 18 h): 0.78 µg/mL
MIC (Salmonella typhimurium; TYPHIMURIUM, 18 h): 0.78 µg/mL
MIC ([5]; Staphylococcus aureus, SG511, 18 h): 0.1 µg/mL
remaining at 5 min [6]: 99.2%
remaining at 10 min [6]: 97.9%
remaining at 20 min [6]: 94.3%
remaining at 40 min [6]: 87.7%
remaining at 80 min [6]: 77%
remaining at 2 h [6]: 66.6%
metabolised at 2 h ([6]; pig, within about 2 hours from beginning of mixing incubation, read-out: decomposition ("was composed by about 40%")): ~40%
antibacterial activity relative to thienamycin, in words [10]: equivalent to, or higher than, that of thienamycin
antibacterial activity, times stronger than that of thienamycin (Pseudomonas aeruginosa): 2 to 4 times
decomposition by DHP-I, in words [11]: can be readily decomposed by DHP-I enzyme present in human kidney
renal toxicity, in words [12]: serious renal toxicity
